Experimental data as given in US5776685A, “Protein kinase C assay” (Joslin Diabetes Center, priority 1996, dated 1998).
Entries after “also recorded” stand apart in the source; their conditions may differ.

How the values were obtained:
bovine PKC alpha [1] = assay: [3H]PDBu binding to yeast spheroplasts expressing PKC alpha forms; conditions: 14 nM [3H]PDBu
Method: FIG. 3 is a graph of phorbol ester binding to cells expressing PKC alpha wild type and mutant proteins.
Phorbol ester binding. About 6×10^8 expressing cells were washed twice in 10 mM K-phosphate buffer pH 7.0, 20 mM EDTA, once in 1M sorbitol and were resuspended in 10 ml 10 mM K-phosphate buffer pH 7.0, 1.1M sorbitol, 0.5 mM CaC12. Cells were incubated with 1 U glusulase (beta-glucuronidase/arylsulfatase from Helix pomatia, Boehringer Mannheim) for about 1 hour under shaking at 30 degrees C to remove the cell wall until test cell suspensions cleared in H2 O due to cell lysis.
Both were about 13-fold elevated over background levels of control cells. Similar findings have been reported for PKC overexpression in transfected mammalian fibroblasts. […] The internal deletion of aa 172-225 led to phorbol ester binding levels reduced by 60% compared to normal PKC alpha, a potential consequence of the removal of parts of the C2 domain.

[2] = system: Saccharomyces cerevisiae strain 334 expressing bovine PKC alpha; assay: Cell doubling time of yeast cultures expressing PKC alpha wild type and mutant cDNAs; type: cell-based; conditions: 2% galactose; for average cell doubling time: synthetic minimal medium, CD26 and ND153 values phorbol ester-independent
Method: FIG. 2 is a graph of cell doubling time of yeast cultures expressing PKC alpha wild type and mutant cDNAs. Freshly saturated cultures expressing control plasmids (Cont.), normal PKC alpha (PKCa) or deletion mutants D172-225, ND153 or CD26 were diluted to low cell densities. Cell growth was followed on a roller at 30 degrees C to measurable cell densities of the logarithmic growth phase at 0.2-0.6 O.D. 600. […] Average doubling times were calculated.
Yeast strains and culture conditions. PKC expression plasmids and YEp51 or YEp52 as controls were introduced into Saccharomyces cerevisiae strain 334 [MAT alpha, pep 4-3, prb1-122, ura 3-52; leu2-3, 112, reg1-501, gal1]by lithium acetate transformation See e.g., Ito et al. 1983, J. Bacterial. 153: 163. Cells were routinely grown at 30 degrees C on a culture roller or shaker in liquid culture or on 1.5% agar plates. The synthetic medium contained 2% glucose and was leucine-free to select for stable propagation of the expression plasmids. Expressing yeast colonies were identified phenotypically by replica plating on medium containing or lacking PMA. Phenol extracts of crude cell lysates were prepared to re-transform Escherichia coli DH5 alpha. PKC mutants were characterized by DNA sequencing and defined plasmids were re-introduces into S. cerevisiae 334. These strains were used in all experiments shown. 50 ml cultures were routinely inoculated from freshly saturated cultures and grown for 16 h to an optical density of 0.4 at O.D.600.
Cell doubling times were measured by O.D.600 reading of liquid cultures in the presence of 2% galactose as shown in FIG. 2 to test whether they correlate with the specific phenotypes (colony size) caused by normal mutant PKC alpha. […] A normal 4 hours doubling time was measured for all constructs in the absence of galactose.

bovine PKC alpha [3] = assay: PKC catalytic activity in vitro (phosphorylation of [ser25]PKC19-31 in detergent cell extracts); type: biochemical; conditions: for PMA and Ca^2+ stimulated mutant PKC activity: Ca^2+: Ca^2+ stimulation of in vitro catalytic activity; for PMA and Ca^2+ stimulated mutant PKC activity: PMA: PMA stimulation, common symbol for in vitro catalytic activity and PMA-mediated increase of cell doubling time; for PMA and Ca^2+ stimulated mutant PKC activity: -: no stimulus (basal), common symbol for in vitro catalytic activity and cell doubling time response
Method: FIG. 4 is a graph which compares PKC mutant and wild type catalytic activities in vitro. […] Catalytic activity was stimulated by combinations of phosphatidylserine (PS), the phorbol ester PMA and calcium ions (Ca^2+). PS, open; PMA+PS, solid; Ca^2+ +PS, diagonally striped.
Cell lysis. About 6×10^8 expressing cells were washed in PBS and were resuspended in 1 ml lysis buffer containing 1% Triton X100, 50 mM Hepes pH 7.4, 15-mM NaC1, 5 mM EDTA, 5 mM EGTA, 10 μg/ml pepstatin, 40 μg/ml leupeptin, 10 μg/ml aprotinin and 200 μg/ml PMSF. Cell suspensions mixed with the same volume of acid washed glass beads (450-500 μm) were lysed mechanically by six 30 second vortexing steps interrupted by cooling on ice for at least 30 second in 50 ml screw cap polypropylene tubes. The lysate was cleared by 4,000 g centrifugation for 15 minutes at 4 degrees C and stored at […] for up to several weeks.
PKC catalytic activity. […] Phosphatidylserine in chloroform, with or without PMA was evaporated under N2 to dryness, resuspended in 20 mM Tris pH 7.5, mixed and sonicated at 4 degrees C for 45 seconds before use. To terminate the reaction the sample was placed on phosphocellulose paper (Whatman P81) which was repeatedly washed in 75 mM phosphoric acid. Bound radioactivity was determined by liquid scintillation spectroscopy.

[4] = system: Saccharomyces cerevisiae strain 334 expressing bovine PKC alpha; assay: 45Ca2+ uptake into yeast cells expressing PKC alpha forms; type: cell-based; conditions: for Ca2+ uptake after PMA stimulation over the control cell background: 1 μM PMA; for increase in Ca^2+ uptake (basal): without PMA stimulation, versus control cells
Method: FIG. 5 is a graph of the modulation of extracellular Ca2+uptake by PKC alpha wild type and mutants.
^45 Ca^2 + uptake. Expressing yeast cells after 16 h in 2% galactose medium were washed with PBS when reaching 0.5 O.D.600. 10^7 cells were suspended in 100 μl of 50 mM MES pH 6.5, 5 mM MgSO4 and incubated with 1 μM PMA for 1 h at 30 degrees C under shaking on 96-well plates. Subsequently uptake of 2 μCi 45 Ca2+ at 300 μM CaCl2 was measured for 2 hours. Cells were rapidly transferred to Multiscreen filtration microtiter plates (Millipore) and washed four times with 200 μl of 10 mM MES, 10 mM Tris, 35 mM CaC12 pH 6.0. Filters were dried and cell-associated radioactivity was determined by liquid scintillation spectroscopy.
Ca^2+ influx has been reported in response to PKC activation in a variety of eukaryotic cells such as Nitella syncarpa plasmalemma, Aplysia bag cell neurons, rat ventricular myocytes and rat pituitary cells. To test whether the measured catalytic activities and the yeast phenotype correlate with other biological responses mediated by PKC, ^45 Ca^2+ uptake into expressing cells was determined after PMA stimulation. […] These responses are consistent with the catalytic activities and phenotypic responses of the mutants: elevated basal activity of ND153, full and reduced phorbol ester-stimulated activity of normal PKC alpha and D172-225, respectively, and lack of activity for CD26.

[5] = system: Saccharomyces cerevisiae strain 334 expressing bovine PKC alpha; assay: Phenotypic screen of PKC alpha mutant activity by yeast colony size on agar plates; type: cell-based; conditions: 2% galactose; for yeast colony size: 3 days
Method: The phenotypic screen of PKC alpha mutant activity by yeast colony size was performed as follows. […] Plates (9 cm diameter) were photograph after 3 days.
Galactose stimulation of cDNA expression resulted for some PKC forms in specific, decreased yeast colony sizes which were either dependent on or independent of phorbol ester activation after 3 days. […] Microscopically small colonies expressing ND153 grew to visible sizes with rates independently of PMA. Colonies expressing PKC alpha grew even more slowly to visible sizes during continued incubation in the presence of PMA.

rat PKC β-1 = molecular target: T1, rat PKC β-1 (Rattus norvegicus, UniProt P68403); assay: PKC beta-1 enzymatic activity in detergent cell extracts; type: biochemical; conditions: phospholipid dependent
T1 construct: we inserted the complete protein coding cDNA of rat PKC β-1; made in house; host or cells: Saccharomyces cerevisiae strain 334, YEp51 with GAL10 promoter; crude detergent cell extract
Method: Duplicate measurements have routinely been made in our experiments. […] The methods described here are for the bovine PKC alpha experiments. The same or similar methods were used in the rat PKC beta-1 experiments.
PKC catalytic activity. PKC catalytic activity was measured as described in Hu et al., 1990, J. Biol. Chem. 265: 13864 by phosphorylation of 3 μg of the specific substrate peptide […] (Seq. ID No. 7) (Gibco, BRL) in the presence of 5 μCi [gamma-32P]ATP (3000 Ci/mmol) in 125 μl of 5-fold diluted cell extract for 30 min. at 25 degrees C with combinations of 160 μg/ml phosphatidylserine (Avanti Polar Lipids, Inc.), 1 μm PMA and 5 mM CaCl2. […] Bound radioactivity was determined by liquid scintillation spectroscopy.
To compare the enzymatic activity of normal and truncated PKC forms, phosphorylation of the PKC-specific substrate [ser^25 ]PKC19-31 a derivative of the pseudosubstrate sequence was measured in detergent cell extracts in response to combinations of phosphatidylserine, the phorbol ester PMA (phorbol-12-myristate-13-acetate), and Ca^2+. In the presence of phosphatidylserine alone only a background level of phosphorylation was detected in all samples including control cells which likely represents the activity of other endogenous yeast protein kinases.

T1 sequence (P68403 2-671): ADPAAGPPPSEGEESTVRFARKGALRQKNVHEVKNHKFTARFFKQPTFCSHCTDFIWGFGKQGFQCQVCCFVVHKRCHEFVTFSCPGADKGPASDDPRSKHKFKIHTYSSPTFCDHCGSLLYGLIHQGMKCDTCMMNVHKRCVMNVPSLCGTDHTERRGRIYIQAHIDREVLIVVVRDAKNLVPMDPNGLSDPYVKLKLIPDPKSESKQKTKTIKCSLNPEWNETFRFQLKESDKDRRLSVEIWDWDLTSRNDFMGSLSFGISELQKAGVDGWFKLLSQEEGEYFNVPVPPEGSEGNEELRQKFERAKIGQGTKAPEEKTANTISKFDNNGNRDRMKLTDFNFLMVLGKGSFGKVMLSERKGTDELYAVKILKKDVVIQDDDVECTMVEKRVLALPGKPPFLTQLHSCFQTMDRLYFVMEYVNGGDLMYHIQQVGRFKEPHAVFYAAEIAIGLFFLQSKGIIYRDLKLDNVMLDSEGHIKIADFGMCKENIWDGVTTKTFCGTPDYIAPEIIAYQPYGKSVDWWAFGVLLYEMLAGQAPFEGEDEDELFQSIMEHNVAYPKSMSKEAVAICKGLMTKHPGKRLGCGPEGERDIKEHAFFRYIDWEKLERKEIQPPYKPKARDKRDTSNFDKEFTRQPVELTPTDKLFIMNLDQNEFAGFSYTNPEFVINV

Substance	[3H]PDBu binding level over background levels of control cells (bovine PKC alpha [1])	increase in the cell doubling time ([2]; absence of phorbol ester) [%]	average cell doubling time ([2]; absence of phorbol ester) [h]	cell doubling time ([2]; phorbol ester stimulation (1 μM PMA)) [h]	PMA and Ca^2+ stimulated mutant PKC activity: Ca^2+ (bovine PKC alpha [3])	stimulation of catalytic activity by phorbol ester (bovine PKC alpha [3]; PMA + phosphatidylserine)	PMA and Ca^2+ stimulated mutant PKC activity: PMA (bovine PKC alpha [3])	PMA and Ca^2+ stimulated mutant PKC activity: - (bovine PKC alpha [3])	catalytic activity in the presence of phosphatidylserine alone (elevated level) (bovine PKC alpha [3]; phosphatidylserine alone)	Ca2+ uptake after PMA stimulation over the control cell background [4]	increase in Ca^2+ uptake (basal) [4]	yeast colony size ([5]; absence of phorbol ester)	yeast colony size ([5]; phorbol ester activation (1 uM PMA))	stimulation of PKC β-1 catalytic activity (rat PKC β-1)	catalytic activity under any conditions (bovine PKC alpha [3]; combinations of phosphatidylserine, PMA and calcium)	yeast colony size / phenotype ([5]; independent of phorbol ester)
PKC alpha: bovine protein kinase C alpha, full length, expressed in yeast	about 13 fold	50	6	16	++	more than 20 fold	++	-	no catalytic activity was detected	up to 4 fold	1.4 fold	reduced colony sizes	substantially reduced yeast colony size; also recorded: substantially further decreased to microscopically small sizes			
diacylglycerol														stimulated by diacylglycerol similar to PMA		
CD26: PKCa deletion of aa 647-672	about 13 fold		4		-		-	-		unaffected by phorbol ester	same basal response as control cells				no activity was detected	wild-type phenotype under any condition
